In patent publication EP0008888A1, “Beta-lactam antibacterial compounds, their preparation and pharmaceutical compositions containing them” (BEECHAM GROUP PLC, priority 1978, dated 1980):
Values after ≈ are worked out from the molar mass of the structure shown. Like-named read-outs stand apart in the source and are kept apart here.

Columns and labels:
[1] = test system: Staphylococcus aureus Oxford; assay: Antibacterial activity (MIC); type: cell-based
Escherichia coli 0111 [2] = assay: Antibacterial activity (MIC); type: cell-based
Shigella sonnei MB11967 = assay: Antibacterial activity (MIC); type: cell-based
Escherichia coli ESS = assay: Antibacterial activity (MIC); type: cell-based
Citrobacter freundii E8 [3] = assay: Antibacterial activity (MIC); type: cell-based
[4] = test system: Escherichia coli ATCC 27166; assay: Antibacterial activity (MIC); type: cell-based
[5] = test system: Branhamella catarrhalis 1502; assay: Antibacterial activity (MIC); type: cell-based
[6] = test system: Streptococcus pneumoniae CN33; assay: Antibacterial activity (MIC); type: cell-based
[7] = test system: Salmonella typhimurium CT10; assay: Antibacterial activity (MIC); type: cell-based
Klebsiella aerogenes A [8] = assay: Antibacterial activity (MIC); type: cell-based
[9] = test system: Streptococcus pyogenes CN10; assay: Antibacterial activity (MIC); type: cell-based
[10] = test system: Escherichia coli NCTC 10418; assay: Antibacterial activity (MIC); type: cell-based
[11] = test system: Bacillus subtilis ATCC 6633; assay: Antibacterial activity (MIC); type: cell-based
[12] = Solution stability of an aqueous solution (uv spectrum); type: physicochemical; settings: aqueous solution (ca 2 mg ml^-1) stored at 5° for 2 months
Shigella sonnei MB 11967 = assay: MIC in a standard test; type: cell-based; settings: MB11967
Serratia marcescens US20 = assay: MIC in a standard test; type: cell-based
Enterobacter cloacoae N1 = assay: MIC in a standard test; type: cell-based
[13] = test system: Staphylococcus aureus Russell; assay: MIC in a standard test; type: cell-based
Escherichia coli 0111 [14] = assay: MIC in a standard test; type: cell-based
[15] = test system: Streptococcus pyogenes CN10; assay: MIC in a standard test; type: cell-based
Proteus vulgaris WO91 = assay: MIC in a standard test; type: cell-based
Pseudomonas aeruginosa A = assay: MIC in a standard test; type: cell-based
Proteus mirabilis C977 = assay: MIC in a standard test; type: cell-based
[16] = test system: Salmonella typhimurium CT10; assay: MIC in a standard test; type: cell-based; settings: Salmonella enterica
[17] = test system: Streptococcus pneumoniae CN33; assay: MIC in a standard test; type: cell-based
Streptococcus faecalis I = assay: MIC in a standard test; type: cell-based; settings: Enterococcus faecalis
[18] = test system: Staphylococcus aureus Oxford; assay: MIC in a standard test; type: cell-based
Proteus morganii I580 = assay: MIC in a standard test; type: cell-based; settings: Morganella morganii
Citrobacter freundii E8 [19] = assay: MIC in a standard test; type: cell-based
Escherichia coli JT39 = assay: MIC in a standard test; type: cell-based; settings: Escherichia coli, JT39
Proteus rettgeri WM16 = assay: MIC in a standard test; type: cell-based; settings: Providencia rettgeri
[20] = test system: Staphylococcus aureus 1517; assay: MIC in a standard test; type: cell-based
Bacillus subtilis A = assay: MIC in a standard test; type: cell-based
Klebsiella aerogenes A [21] = assay: MIC in a standard test; type: cell-based
[22] = Escherichia coli, 0111, Escherichia coli 0111, read-out: MIC
[23] = Shigella sonnei, MB11967, Shigella sonnei MB11967, read-out: MIC
[24] = Citrobacter freundii, E8, Citrobacter freundii E8, read-out: MIC
[25] = Escherichia coli, ATCC27166, Escherichia coli ATCC 27166, read-out: MIC
[26] = Salmonella enterica, TYPHIMURIUM, read-out: MIC
[27] = Klebsiella aerogenes, read-out: MIC
[28] = Escherichia coli, NCTC10418, Escherichia coli NCTC 10418, read-out: MIC
[29] = Bacillus subtilis, ATCC6633, Bacillus subtilis ATCC 6633, read-out: MIC

## CCSC1=C(C(=O)OCc2ccc([N+](=O)[O-])cc2)N2C(=O)CC2C1 (racemic) [(±), p-Nitrobenzyl 3-ethylthio-7-oxo-1-azabicyclo [3,2,0]hept-2-ene-2-carboxylate]
[1]; read-out: MIC
  MIC: > 50 µg/mL
Escherichia coli 0111 [2]; [22]
  MIC: > 50 µg/mL
Shigella sonnei MB11967; [23]
  MIC: > 50 µg/mL
Escherichia coli ESS; Escherichia coli, read-out: MIC
  MIC: 12.5 µg/mL (≈ 35.9 µM)
Citrobacter freundii E8 [3]; [24]
  MIC: 50 µg/mL (≈ 144 µM)
[4]; [25]
  MIC: 12.5 µg/mL (≈ 35.9 µM)
[5]; Moraxella catarrhalis, 1502, Branhamella catarrhalis 1502, read-out: MIC
  MIC: 1.2 µg/mL (≈ 3.44 µM)
[6]; Streptococcus pneumoniae, CN33, Streptococcus pneumoniae CN33, read-out: MIC
  MIC: 1.2 µg/mL (≈ 3.44 µM)
[7]; [26]
  MIC: 50 µg/mL (≈ 144 µM)
Klebsiella aerogenes A [8]; [27]
  MIC: 25 µg/mL (≈ 71.8 µM)
[9]; Streptococcus pyogenes, CN10, Streptococcus pyogenes CN10, read-out: MIC
  MIC: 1.2 µg/mL (≈ 3.44 µM)
[10]; [28]
  MIC: 50 µg/mL (≈ 144 µM)
[11]; [29]
  MIC: 25 µg/mL (≈ 71.8 µM)

## CCSC1=C(C(=O)[O-])N2C(=O)C(CC)C2C1.[Na+] (stereo not drawn)
[12]
  solution stability: without deterioration

## CNC(=O)OCCSC1=C(C(=O)[O-])N2C(=O)CC2C1.[Na+] (stereo not drawn) [Example 37, Sodium 3-(2-methylcarbamoyloxyethylthio)-7-oxo-1-azabicyclo [3.2.0]hept-2-ene-2-carboxylate]
Shigella sonnei MB 11967
  MIC: 0.8 µg/mL
Serratia marcescens US20
  MIC: 6.2 µg/mL
Enterobacter cloacoae N1
  MIC: 1.6 µg/mL
[13]
  MIC: 12.5 µg/mL
Escherichia coli 0111 [14]
  MIC: 0.8 µg/mL
[15]
  MIC: ≤ 0.2 µg/mL
Proteus vulgaris WO91
  MIC: 12.5 µg/mL
Pseudomonas aeruginosa A
  MIC: > 50 µg/mL
Proteus mirabilis C977
  MIC: 1.6 µg/mL
[16]
  MIC: 0.8 µg/mL
[17]
  MIC: ≤ 0.2 µg/mL
Streptococcus faecalis I
  MIC: 25 µg/mL
[18]
  MIC: 1.6 µg/mL
Proteus morganii I580
  MIC: 12.5 µg/mL
Citrobacter freundii E8 [19]
  MIC: 1.6 µg/mL
Escherichia coli JT39
  MIC: 6.2 µg/mL
Proteus rettgeri WM16
  MIC: 12.5 µg/mL
[20]
  MIC: > 50 µg/mL
Bacillus subtilis A
  MIC: 0.8 µg/mL
Klebsiella aerogenes A [21]
  MIC: 0.4 µg/mL

## CCSC1=C(C(=O)OCc2ccc([N+](=O)[O-])cc2)N2C(=O)CC2C1 (single isomer, unassigned; (-)) [(-), (-) p-Nitrobenzyl 3-ethylthio-7-oxo-1-azabicyclo[3.2.0] hept-2-ene-2-carboxylate]
[1]; read-out: MIC
  MIC: > 50 µg/mL
Escherichia coli 0111 [2]; [22]
  MIC: > 50 µg/mL
Shigella sonnei MB11967; [23]
  MIC: > 50 µg/mL
Escherichia coli ESS
  MIC: 25 µg/mL (≈ 71.8 µM)
Citrobacter freundii E8 [3]; [24]
  MIC: > 50 µg/mL
[4]; [25]
  MIC: 25 µg/mL (≈ 71.8 µM)
[5]; Branhamella catarrhalis 1502
  MIC: 2.5 µg/mL (≈ 7.18 µM)
[6]; Streptococcus pneumoniae CN33
  MIC: 2.5 µg/mL (≈ 7.18 µM)
[7]; [26]
  MIC: > 50 µg/mL
Klebsiella aerogenes A [8]; [27]
  MIC: 25 µg/mL (≈ 71.8 µM)
[9]; Streptococcus pyogenes CN10
  MIC: 2.5 µg/mL (≈ 7.18 µM)
[10]; [28]
  MIC: > 50 µg/mL
[11]; [29]
  MIC: 50 µg/mL (≈ 144 µM)

## CCSC1=C(C(=O)OCc2ccc([N+](=O)[O-])cc2)N2C(=O)CC2C1 (single isomer, unassigned; (+)) [(+), (+) p-Nitrobenzyl 3-ethylthio-7-oxo-1-azabicyclo[3.2.0] hept-2-ene-2-carboxylate]
[1]
  MIC: >50 µg/mL
Escherichia coli 0111 [2]; Escherichia coli 0111
  MIC: 50 µg/mL (≈ 144 µM)
Shigella sonnei MB11967; Shigella sonnei MB11967
  MIC: 50 µg/mL (≈ 144 µM)
Escherichia coli ESS
  MIC: 5.0 µg/mL (≈ 14.4 µM)
Citrobacter freundii E8 [3]; Citrobacter freundii E8
  MIC: 25 µg/mL (≈ 71.8 µM)
[4]; Escherichia coli ATCC 27166
  MIC: 12.5 µg/mL (≈ 35.9 µM)
[5]; Branhamella catarrhalis 1502
  MIC: 0.5 µg/mL (≈ 1.44 µM)
[6]; Streptococcus pneumoniae CN33
  MIC: 0.5 µg/mL (≈ 1.44 µM)
[7]
  MIC: 50 µg/mL (≈ 144 µM)
Klebsiella aerogenes A [8]
  MIC: 12.5 µg/mL (≈ 35.9 µM)
[9]; Streptococcus pyogenes CN10
  MIC: 1.2 µg/mL (≈ 3.44 µM)
[10]; Escherichia coli NCTC 10418
  MIC: 25 µg/mL (≈ 71.8 µM)
[11]; Bacillus subtilis ATCC 6633
  MIC: 25 µg/mL (≈ 71.8 µM)
